Results taken from patent US6743939B2, “Phenylheteroalkylamine derivatives” (AstraZeneca AB, priority 2000, dated 2004).

What was measured:
[1] = biological target: T1, nitric oxide synthase (induced, from murine macrophage cell line J774A-1) (Mus musculus, UniProt P29477); experiment: Screen 1: nitric oxide synthase inhibition, 3H-L-arginine to 3H-L-citrulline conversion, lysate of induced J774A-1 cells; assay type: biochemical; details: standard to verify the procedure, 1 hour at room temperature, read-out: IC50 (50% inhibitory concentration)
T1 construct: The reaction is started by adding 50 μl of cell lysate (prepared as above); endogenous in cells; host or cells: J774A-1 murine macrophage cell line, induced with LPS and IFN-gamma; crude cell lysate
Description: The activity of compounds of formula (I), or a pharmaceutically acceptable salt, enantiomer or racemate thereof, may be screened for nitric oxide synthase inhibiting activity by a procedure based on that of Förstermann et al., Eur. J. Pharm., 1992, 225; 161-165. Nitric oxide synthase converts ^3H-L-arginine into ^3H-L-citrulline which can be separated by cation exchange chromatography and quantified by liquid scintillation counting.
Enzyme is prepared, after induction, from the cultured murine macrophage cell line J774A-1 (obtained from the laboratories of the Imperial Cancer Research Fund). J774A-1 cells are cultured in Dulbeccos Modified Eagles Medium (D[MEM) supplemented with 10% foetal bovine serum, 4 mM L-glutamine and antibiotics (100 units/ml penicillin G, […] streptomycin & […] amphotericin B). Cells are routinely grown in […] flasks containing 35 ml medium kept at 37° C. and in a humidified atmosphere containing 5% CO2. […]
Labelled L-citrulline is separated from labelled L-arginine using Dowex AG-50W. […] After allowing the samples to dry the L-citrulline is quantified by scintillation counting.
In a typical experiment basal activity is 300 dpm per 75 μl sample which is increased to 1900 dpm in the reagent controls. […] Compounds are tested at a range of concentrations and from the inhibitions obtained IC50 values are calculated. […]

Compound	melting point	IC50 [1]
CCN(CCO)CCC[C@@H](Oc1cc(Cl)ccc1C#N)c1ccccc1.Cl	141 to 144 °C	
CNCCC[C@@H](Oc1cc(Cl)ccc1C#N)c1ccccc1.O=C(O)C(=O)O [Example 1, 4-Chloro-2-[[(1R)-4-(methylamino)-1-phenylbutyl]oxy]benzonitrile ethanedioate]	167 to 169 °C	
CNCC[C@@H](Cc1ccccc1)Oc1cc(Cl)ccc1Cl.O=C(O)C(=O)O [Example 2, R-γ-(2,5-Dichlorophenoxy)-N-methyl-benzenebutanamine ethanedioate]	167 to 169 °C	
N#Cc1ccc(Cl)cc1O[C@H](CCCN1CCCC1)c1ccccc1.O=C(O)C(=O)O [Example 3, 4-Chloro-2-[[(1R)-1-phenyl-4-(1-pyrrolidinyl)butyl]oxy]-benzonitrile ethanedioate]	157 to 158 °C	
N#Cc1ccc(Cl)cc1O[C@H](CCCNCc1cccnc1)c1ccccc1.O=C(O)C(=O)O [Example 6, 4-Chloro-2-[[(1R)-1-phenyl-4-[(3-pyridinylmethyl)amino]butyl]oxy]-benzonitrile ethanedioate]	188 to 189 °C	
N#Cc1ccc(Cl)cc1O[C@H](CCCNCCO)c1ccccc1.O=C(O)C(=O)O [Example 9, 4-Chloro-2-[[(1R)-4-[(2-hydroxyethyl)amino]-1-phenylbutyl]oxy]-benzonitrile ethanedioate]	158 to 159 °C	
N#Cc1ccc(Cl)cc1O[C@H](CCCNC1CC1)c1ccccc1.O=C(O)C(=O)O [Example 10, 4-Chloro-2-[[(1R)-4-(cyclopropylamino)-1-phenylbutyl]oxy]-benzonitrile ethanedioate]	173 to 174 °C	
N#Cc1ccc(Cl)cc1O[C@H](CCCNCCCO)c1ccccc1.O=C(O)C(=O)O [Example 11, 4-Chloro-2-[[(1R)-4-[(3-hydroxypropyl)amino]-1-phenylbutyl]oxy]-benzonitrile ethanedioate]	111 to 112 °C	
C[C@H](CO)NCCC[C@@H](Oc1cc(Cl)ccc1C#N)c1ccccc1.O=C(O)C(=O)O [Example 12, 4-Chloro-2-[[(1R)-4-[[(1R)-2-hydroxy-1-methylethyl]amino]-1-phenylbutyl]oxy]-benzonitrile ethanedioate]	163 to 164 °C	
C[C@@H](CO)NCCC[C@@H](Oc1cc(Cl)ccc1C#N)c1ccccc1.O=C(O)C(=O)O [Example 13, 4-Chloro-2-[[(1R)-4-[[(1S)-2-hydroxy-1-methylethyl]amino]-1-phenylbutyl]oxy]-benzonitrile ethanedioate]	186 to 187 °C	
CNCC[C@@H](Cc1ccc(F)cc1)Oc1cc(Cl)ccc1Cl [Example 15, R-γ-(2,5-Dichlorophenoxy)-4-fluoro-N-methyl benzenebutanamine]	160 to 162 °C	
CNCC[C@@H](Cc1ccc(C)cc1)Oc1cc(Cl)ccc1Cl.O=C(O)/C=C/C(=O)O [Example 17, R-γ-(2,5-Dichlorophenoxy)-N,4-dimethyl-benzenebutanamine fumarate]	126 to 130 °C	
CNCCCC(Oc1cc(Cl)ccc1C#N)c1ccccn1.O=C(O)C(=O)O (stereo not shown) [Example 31, 4-Chloro-2-[4-(methylamino)-1-(2-pyridinyl)butoxy]benzonitrile oxalate]	170 to 171 °C	
CNCCCC(Oc1cc(Cl)c(F)cc1C#N)c1ccccn1.O=C(O)C(=O)O (stereo not shown) [Example 32, 4-Chloro-5-fluoro-2-[4-(methylamino)-1-(2-pyridinyl)butoxy]benzonitrile oxalate]	169 to 170 °C	
CNCCCC(Oc1cc(Cl)ccc1C#N)c1ccncc1.O=C(O)C(=O)O (stereo not shown) [Example 37, 4-Chloro-2-[4-(methylamino)-1-(4-pyridinyl)butoxy]benzonitrile oxalate]	169 to 172 °C	
N=C(N)NN [aminoguanidine]		10 µM
